Broadly, the IC50 is the midpoint of a concentration-inhibition curve.

Structures are written as SMILES.

This passage reports IC50 results from patent publication US20260184715A1, “NOVEL PYRROLO[1,2-d][1,2,4] TRIAZINONE DERIVATIVES AS NEGATIVE ALLOSTERIC MODULATORS OF MGLU7 RECEPTORS” (Neurosterix Pharma Sarl., priority 2022, published 2026).

The assay deals with T1, human metabotropic glutamate 7 receptor (hmGlu7) (Homo sapiens, UniProt Q14831).
T1 construct: expressed in transfected cells
T1 sequence (Q14831 35-922 isoform Q14831-2 limits assumed): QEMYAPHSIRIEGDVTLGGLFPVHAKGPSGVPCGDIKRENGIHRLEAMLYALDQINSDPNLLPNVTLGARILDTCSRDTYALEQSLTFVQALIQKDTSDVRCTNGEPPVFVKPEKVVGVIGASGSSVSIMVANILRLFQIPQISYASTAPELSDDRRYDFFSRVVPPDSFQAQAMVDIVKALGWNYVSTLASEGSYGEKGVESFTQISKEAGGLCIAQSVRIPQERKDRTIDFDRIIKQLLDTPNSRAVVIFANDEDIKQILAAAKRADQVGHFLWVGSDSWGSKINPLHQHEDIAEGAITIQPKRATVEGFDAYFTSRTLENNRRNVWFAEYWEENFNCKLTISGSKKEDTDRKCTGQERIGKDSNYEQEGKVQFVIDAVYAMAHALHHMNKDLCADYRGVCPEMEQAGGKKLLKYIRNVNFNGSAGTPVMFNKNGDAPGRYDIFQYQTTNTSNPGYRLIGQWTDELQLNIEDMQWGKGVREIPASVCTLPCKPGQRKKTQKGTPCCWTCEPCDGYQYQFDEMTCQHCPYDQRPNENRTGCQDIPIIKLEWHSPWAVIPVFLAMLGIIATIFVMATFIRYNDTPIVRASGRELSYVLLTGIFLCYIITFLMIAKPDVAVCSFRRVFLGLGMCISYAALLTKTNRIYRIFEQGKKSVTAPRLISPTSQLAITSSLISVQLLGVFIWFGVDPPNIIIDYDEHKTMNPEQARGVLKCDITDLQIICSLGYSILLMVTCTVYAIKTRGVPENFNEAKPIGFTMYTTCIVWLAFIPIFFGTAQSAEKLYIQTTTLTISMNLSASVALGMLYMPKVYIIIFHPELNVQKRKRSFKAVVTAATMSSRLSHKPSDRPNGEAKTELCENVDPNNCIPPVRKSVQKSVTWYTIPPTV
As to the kind of experiment: mGlu7 assay on HEK-expressing human mGlu7: fluorescent cell based-Ca2+ mobilization assay (FLIPR), inhibition of EC80 L-AP4 response. Particulars: HEK-293 cells expressing hmGlu7, EC80 L-AP4; mean of at least three independent experiments in duplicate; read-out: Ca^2+ Flux (mean IC50). From the text:
mGlu7 Assay on HEK-Expressing Human mGLU7
The cDNA encoding the human metabotropic glutamate 7 receptor (hmGlu7), (accession number NM_181874.2, NCBI Nucleotide database browser), was subcloned into an expression vector containing also the hygromycin resistance gene. In parallel, the cDNA encoding a G protein allowing redirection of the activation signal to intracellular calcium flux was subcloned into a different expression vector containing also the Puromycin resistance gene. Transfection of both these vectors into HEK293 cells with PolyFect reagent (Qiagen) according to supplier's protocol, and hygromycin and puromycin treatment allowed selection of antibiotic resistant cells which had integrated stably one or more copies of the plasmids. Positive cellular clones expressing hmGlu7 were identified in a functional assay measuring changes in calcium fluxes in response to glutamate and L-AP4 or known mGlu7 orthosteric antagonists.
HEK-293 cells expressing hmGlu7 were maintained in media containing DMEM, Fetal Bovine Serum (10%), GlutaMAX™ (2 mM), penicillin (100 units/mL), streptomycin (100 μg/mL), geneticin (100 μg/mL) and hygromycin-B (40 μg/mL) and puromycin (1 μg/mL) at 37° C. with 5% CO2 in a humidified atmosphere.
Human mGlu7 HEK-293 cells were plated out 24 hours prior to a fluorescent cell-based calcium mobilization assay using FLIPR^384 assay (Molecular Device, Sunnyvale, CA, USA) in black-walled, clear-bottomed, poly-L-ornithine-coated 384-well plates at a density of 25,000 cells/well in a glutamine/glutamate free DMEM medium containing fetal bovine serum (10%), penicillin (100 units/mL), streptomycin (100 μg/mL) and doxycyline (1 μg/ml) at 37° C. with 5% CO2 in a humidified atmosphere.
On the day of the assay, the medium was aspirated and the cells were loaded with a 3 μM solution of Fluo4-AM (LuBioScience, Lucerne, Switzerland) in 0.03% pluronic acid. After 1 hour at 37° C./5% CO2, the non incorporated dye was removed by washing cell plate with the assay buffer. All assays were performed in a pH 7.4 buffered-Solution containing 20 mM HEPES, 143 mM NaCl, 6 mM KCl, 1 mM MgSO4, 1 mM CaCl2, 0.125 mM sulfinpyrazone and 0.1% glucose.
After 10 s of basal fluorescence recording, various concentrations of the compounds of the invention were added to the cells. Changes in fluorescence levels were first monitored for 180 s in order to detect any agonist activity of the compounds. Then the cells were stimulated by an EC80 L-AP4 concentration for an additional 110 s in order to measure inhibiting activities of the compounds of the invention. EC80 L-AP4 concentration is the concentration giving 80% of the maximal glutamate response.
The concentration-response curves of L-AP4 or representative compounds of the present invention were generated using the Prism GraphPad software (Graph Pad Inc, San Diego, USA). The curves were fitted to a four-parameter logistic equation:
(Y=Bottom+(Top−Bottom)/(1+10^((Log IC50−X)*Hill Slope)
allowing determination of IC50 values.
The Table 3 below represents the mean IC50 obtained from at least three independent experiments of selected molecules performed in duplicate.
(Calcium assays in cells follow changes in intracellular calcium, usually with a dye or a luminescent sensor.)
`Cc1c(OC2CC2)cccc1-c1cc2cnn(-c3ccccn3)c(=O)n2c1` [1-82]: the half-inhibitory concentration (IC50) was in the range of 100 to 1000 nM.

As for `COc1ccc(-c2c(C)c3cnn(-c4ncccn4)c(=O)n3c2C)c(F)c1` [1-135], the concentration for half-maximal inhibition (IC50) was < 100 nM.

For the molecule `Cc1c(-c2cccc(N3CCC3)c2)c(C)n2c(=O)n(C)ncc12` [1-12], the IC50 was 100 to 1000 nM.

For `COc1ccc(-c2c(C)c3cnn(-c4ccccn4)c(=O)n3c2C)c(F)c1` [1-136], the IC50 was < 100 nM.

`Cc1c(-c2cccc(N3CCC3)c2)c(C)n2c(=O)n(Cc3ccccn3)ncc12` [1-9]: the IC50 was 100 to 1000 nM.

Regarding `COc1cnc(-n2ncc3c(C)c(-c4cccc(OC(F)(F)F)c4)c(C)n3c2=O)nc1` [1-56], the IC50 was 100 to 1000 nM.

With `Cc1c(OC(F)F)cccc1-c1cc2cnn(-c3ncccn3)c(=O)n2c1C` [1-75], the concentration for half-maximal inhibition (IC50) is < 100 nM.

Consider `Cc1c(-c2cccc3c2CCN3C(C)C)cc2cnn(-c3ncccn3)c(=O)n12` [1-68], for which the IC50 is < 100 nM.

On to `Cc1c(-c2cccc3c2CCN3C)c(C)n2c(=O)n(-c3ncccn3)ncc12` [1-87], for which the IC50 fell in the range of 100 to 1000 nM.

On to `Cc1c(-c2cccc(OC3CC3)c2)c(C)n2c(=O)n(-c3ncc(N)cn3)ncc12` [1-81], for which the IC50 was in the range of 100 to 1000 nM.

Take `Cc1c(-c2cccc(OC(F)(F)F)c2)c(C)n2c(=O)n(-c3ncc(F)cn3)ncc12` [1-60]: the IC50 lay within 100 to 1000 nM.

With `Cc1c(-c2cccc(OC(F)F)c2)cc2cnn(-c3ncccn3)c(=O)n12` [1-74], the half-maximal inhibitory concentration (IC50) is < 100 nM.

`Cc1c(-c2cccc3c2CCCN3C2CC2)c(C)n2c(=O)n(-c3ncccn3)ncc12` [1-121]: the IC50 lay in the range of 100 to 1000 nM.

As for `COc1nccc(-c2cc3cnn(-c4ncccn4)c(=O)n3c2C)c1F` [1-117], the concentration for half-maximal inhibition (IC50) is < 100 nM.

For `Cc1c(OC2CC2)cccc1-c1c(C)c2cnn(-c3ccc(F)cn3)c(=O)n2c1C` [1-54], the IC50 lay in the range of 100 to 1000 nM.

On to `Cc1c(OC2CC2)cccc1-c1cc2cnn(-c3ccccn3)c(=O)n2c1C` [1-84], for which the half-maximal inhibitory concentration (IC50) fell in the range of 100 to 1000 nM.

Take `Cc1c(-c2cccc3c2CCN3C2CC2)cc2cnn(-c3ccccn3)c(=O)n12` [1-65]: the IC50 is < 100 nM.

On to `Cc1c(-c2cccc(OC3CC3)c2F)c(C)n2c(=O)n(-c3ncccn3)ncc12` [1-125], for which the IC50 is 100 to 1000 nM.

Turning to `Cc1c(C2=CCCCC2)c(C)n2c(=O)n(-c3ccccn3)ncc12` [1-14], the IC50 lay within 1000 to 10000 nM.

As for `Cc1c(-c2cccc3c2CCO3)cc2cnn(-c3ccccn3)c(=O)n12` [1-69], the IC50 was < 100 nM.

For `Cc1c(-c2cc3cnn(-c4ncccn4)c(=O)n3c2C)ccnc1OC1CC1` [1-145], the IC50 is < 100 nM.

With `Cc1c(-c2cccc(OC(F)(F)F)c2)c(C)n2c(=O)n(-c3ccccn3)ncc12` [1-38], the concentration for half-maximal inhibition (IC50) was in the range of 100 to 1000 nM.

In the case of `COc1cccc(-c2cc3cnn(-c4ccccn4)c(=O)n3c2C)c1F` [1-108], the concentration for half-maximal inhibition (IC50) was 100 to 1000 nM.

As for `COc1ccc(-c2c(C)c3cnn(-c4ccccn4)c(=O)n3c2C)cn1` [1-129], the IC50 is < 100 nM.

With `Cc1c(-c2cccc(OC3CC3)c2)c(C)n2c(=O)n(-c3ncc(N4CCC(O)C4)cn3)ncc12` (stereo not drawn) [1-80], the IC50 is 100 to 1000 nM.

As to `Cc1c(OC2CC2)cccc1-c1cc2cnn(-c3ncccn3)c(=O)n2c1` [1-18, 7-[3-(cyclopropoxy)-2-methyl-phenyl]-3-pyrimidin-2-yl-pyrrolo[1,2-d][1,2,4]triazin-4-one], the IC50 lay in the range of 100 to 1000 nM.

On to `Cc1c(OC2CC2)cccc1-c1c(C)c2cnn(-c3ncccn3)c(=O)n2c1C` [1-27], for which the IC50 is < 100 nM.
